In paper PMC7646182, “Design and biological evaluation of novel BF-30 analogs for the treatment of malignant melanoma” (Journal of Cancer, 2020):

System: B16F10 melanoma
Test: Chronic study in B16F10-bearing mouse model
Format: in vivo
Conditions: B16F10-bearing C57BL/6J mice, 4-week treatment; LBF-14 0.3 and 0.9 mg/kg, cisplatinum 0.1 mg/kg, n=10
Experimental: The B16F10 cells (0.1 ml, 5×10^6 cells, cell viability >99%) were subcutaneously transplanted into the C57BL/6J mice. In the next 15 days, the length (L), width (W) and height (H) of tumours were measured with a caliper to calculate tumour volume using the formula: V = π/6×L×W×H. When the tumours grew to 150-350 mm^3, the melanoma model mice were randomly divided into five groups (n=10) and received saline, native BF-30 at 0.9 mg/kg, LBF-14 at […] doses of 0.3 and 0.9 mg/kg, and cisplatinum at the dose of 0.1 mg/kg, respectively. All the samples including the saline and different doses of LBF-14 were administered twice weekly by intra-tumour injection (50 μl) for 4 successive weeks. All melanoma model mice were weighted and sacrificed at the end of the experimental period (day 29). The anti-tumour efficacies of LBF-14 at both two doses were presented as inhibitory rates (%) which were calculated as [(A-B)/A]×100% (average tumour weight of (A) saline treated group and (B) LBF-14 treated groups, respectively). In addition, the tumours from the B16F10-bearing mice were separated and then performed H&E staining according to the standard operating procedures.

**Q.** N.N.[Cl][Pt][Cl] [cisplatinum] was tested. Which “effect on body weight of model mice” value did it give?
**A.** significant decrease in body weight
